“Also recorded” adds a separate entry of the source.
Legend:
[1] = tested on: MDA-MB-231 cells; experiment: Cell viability assay (trypan blue); type: cell-based, human; conditions: Normoxia, 48 hours
Method: Cells were seeded at a density of 5×10^4 cells/ml in 35 mm Falcon tissue culture dishes. After treatment with a given drug, the medium was removed and replaced with 800 μl of growth medium and 200 μl 0.4% trypan blue (Sigma, Dorset, UK) and incubated for 10 minutes in the incubator. The trypan blue was removed and the cells were washed once with 3 ml growth medium. For each treatment, cells from 30 random fields of view were counted under 100× magnification. The number of dead cells, stained blue, was counted in each field of view. The data were expressed as percentages of living cells out of the total number of cells in given fields of view. The percentages were averaged and differences between control and treatment were compared from at least three independent experiments.
(§1) With the exception of single cell adhesion tests, which are discussed in the following paragraph, experiments were carried out under either; • (i) normal normoxic conditions ([…], 5% carbon dioxide), or • (ii) following 24 hours hypoxic pre-treatment (2% O2, 5% CO2, 93% N2) continued during the assays.

[2] = tested on: MDA-MB-231 cells; experiment: Lateral motility assay (wound-heal / scratch); type: cell-based, human
Method: This assay was used to represent the “free” motility of cancer cells during local spreading. FIG. 5(a) is a plan view from above of a cell culture dish 501 having a semi-confluent layer of cells 502 on its surface, the cells being in an aqueous medium 503.
In order to determine lateral motility, a “wound-heal (“scratch”)” test was carried out, in which a scratch 504 of ˜0.5 mm was made through the layer of cells, as shown in FIG. 5(b) which is a side sectional view of the cell culture dish.
During the period of 24 hours following the formation of the scratch, the cells moved into the gap.
FIGS. 5(c) and 5(d) are schematic plan views of the cell culture dish 501 at time t=zero when the width of the scratch 504 is w0 and time t=24 hours when the width of the scratch 504 is w24, respectively.
as §1

[3] = tested on: MDA-MB-231 cells; experiment: Invasion assay (Matrigel Transwell); type: cell-based, human
Description: This assay is an extension of the transverse migration assay described above. To “invade”, the cells need both (i) to move as in the transverse migration assay and (ii) secrete a proteolytic enzyme to digest their surroundings. The ability of cells to invade neighbouring tissues by enzyme secretion was therefore assessed by using a layer of Matrigel™ (BD Biosciences) spread across the porous membrane of a Transwell® insert.
FIG. 7 is a schematic side sectional view of an invasion chamber 701 having a Transwell® insert 702 separating the chamber into upper 703 and lower 704 sections. The insert 702 has a migration filter membrane 705 in its base with 8 μm pores 706 extending therethrough. A layer 707 of Matrigel™ is shown coating the filter membrane 705.
Cells 708 were plated at a density of 2×10^4/ml onto the Matrigel™ layer 707 in 24-well plates (Becton-Dickinson) according to the manufacturers' instructions. 50 μl Matrigel™ was seeded at a 1:7 dilution (10 mg/ml stock) onto the inserts and left overnight. Prior to seeding with the cells the Matrigel™ was rehydrated using medium with no additions. This medium was removed prior to seeding the cells.
Cells were plated in a 1-5% FBS chemotactic gradient overnight (12 hours). The nutrient concentration in the medium 709 in the upper section 703 of the chamber was less than the concentration of nutrient in the medium 710 in the lower section 704 to induced movement of the cells through the Matrigel™ layer 707 and through the pores 706 to the underside of the filter membrane 705. At the end of each assay, non-invaded/non-migrated cells were removed from the upper surface of the insert 702 with two different swabs.
The number of cells invading to the underside of the insert 702 was determined using crystal violet staining. Invaded cells were fixed for 15 minutes with ice-cold methanol. Then 0.5% crystal violet (in 25% methanol) was added for 15 minutes. The inserts were swabbed again and then washed in water and allowed to dry. Cells were then counted using twelve separate fields of view per insert (×200 magnification). If the difference in the average number of cells invading the two control inserts was more than 40%, the experiment was rejected.
as §1

[4] = tested on: Mat-LyLu cells; experiment: Transverse migration assay (Transwell); type: cell-based, rat
Method: This assay was used to represent the ability of cells to migrate as they intra/extravasate. […] The insert 602 has a migration filter membrane 605 in its base with 8 μm pores 606 extending therethrough.
Cells 607 were plated at a density of 2×10^4/ml on the filter membrane 605 and placed under a growth medium 608 containing 1% foetal bovine serum (FBS). A chemotactic gradient was created across the filter membrane 605 by placing growth medium 609 containing 10% FBS in the lower section 604 of the chamber.
Cells were allowed to migrate across the filter membrane 605 over a period of 24 hours, cells migrating and adhering to the underside of the filter membrane 605.
At the end of each assay, non-migrated cells were removed from the upper surface of the insert 602 with two different swabs
The number of cells migrating to the underside of the insert 602 was determined using crystal violet staining. Migrated cells were fixed for 15 minutes with ice-cold methanol. Then 0.5% crystal violet (in 25% methanol) was added for 15 minutes. The inserts were swabbed again and then washed in water and allowed to dry. Cells were then counted using twelve separate fields of view per insert (×200 magnification).
as §1

[5] = Hypoxia, 5 μM, 72 hours pretreatment
[6] = Hypoxia, 10 μM, listed as RANOLAZINE
[7] = Normoxia, 10 μM, listed as RANOLAZINE
[8] = Hypoxia, 20 μM, listed as RANOLAZINE
[9] = Hypoxia, 50 μM, listed as RANOLAZINE
[10] = Hypoxia, 300 μM, listed as RANOLAZINE
[11] = Normoxia, 20 μM, listed as RANOLAZINE
[12] = Normoxia, 50 μM, listed as RANOLAZINE
[13] = Normoxia, 300 μM, listed as RANOLAZINE

Nc1nc2ccc(OC(F)(F)F)cc2s1 [riluzole]
CELL VIABILITY ([1]; 1 μM): no effect
CELL VIABILITY ([1]; 10 μM): decreased the cell viability
CELL VIABILITY ([1]; 10 μM, listed as RILUZOLE): cell death
CELL VIABILITY ([1]; 100 μM): decreased the cell viability
CELL VIABILITY ([1]; 100 μM, listed as RILUZOLE): cell death
lateral motility with increasing concentration ([2]; 1 μM, 10 μM and 100 μM, normoxia and hypoxia): reduced the lateral motility of the cells; the effect was greater under hypoxia
LATERAL MOTILITY ([2]; Hypoxia, 1 μM): decreased
LATERAL MOTILITY ([2]; Hypoxia, 10 μM): decreased
LATERAL MOTILITY ([2]; Hypoxia, 100 μM): decreased
LATERAL MOTILITY ([2]; Normoxia, 1 μM): no effect
LATERAL MOTILITY ([2]; Normoxia, 10 μM): decreased
LATERAL MOTILITY ([2]; Normoxia, 100 μM): decreased
INVASIVENESS (no pretreatment) ([3]; Hypoxia, 1 μM): decreased
INVASIVENESS (pretreatment) [3, 5]: significantly inhibited invasiveness
INVASIVENESS (pretreatment) ([3]; Hypoxia, 5 μM, 72 hours pretreatment, listed as RILUZOLE): decreased
INVASIVENESS (no pretreatment) ([3]; Hypoxia, 5 μM, listed as RILUZOLE): decreased
INVASIVENESS (no pretreatment) ([3]; Hypoxia, 5 μM, listed as Riluzole): significantly inhibited invasiveness
INVASIVENESS (no pretreatment) ([3]; Normoxia, 1 μM): decreased

COc1ccccc1OCC(O)CN1CCN(CC(=O)Nc2c(C)cccc2C)CC1 (stereo not shown) [ranolazine]
CELL VIABILITY ([1]; 1 μM): no effect
CELL VIABILITY ([1]; 10 μM): no effect
CELL VIABILITY ([1]; 100 μM): no effect
LATERAL MOTILITY ([2]; Hypoxia, 1 μM): statistically significant reduction; also recorded: reduced the lateral motility
LATERAL MOTILITY ([2]; Hypoxia, 1 μM, listed as RANOLAZINE): decreased
LATERAL MOTILITY ([2]; Hypoxia, 10 μM): statistically significant reduction; also recorded: reduced the lateral motility
LATERAL MOTILITY [2, 6]: decreased
LATERAL MOTILITY ([2]; Hypoxia, 100 μM): statistically significant reduction; also recorded: reduced the lateral motility
LATERAL MOTILITY ([2]; Hypoxia, 100 μM, listed as RANOLAZINE): decreased
LATERAL MOTILITY ([2]; Normoxia, 1 μM): reduced
LATERAL MOTILITY ([2]; Normoxia, 1 μM, listed as RANOLAZINE): decreased
LATERAL MOTILITY ([2]; Normoxia, 10 μM): reduced
LATERAL MOTILITY [2, 7]: decreased
LATERAL MOTILITY ([2]; Normoxia, 100 μM): reduction at a concentration of 100 μM ranolazine was statistically significant
LATERAL MOTILITY ([2]; Normoxia, 100 μM, listed as RANOLAZINE): decreased
INVASIVENESS (no pretreatment) ([3]; Hypoxia, 5 μM): not statistically significant
INVASIVENESS (pretreatment) [3, 5]: very significant reduction
INVASIVENESS (pretreatment) ([3]; Hypoxia, 5 μM, 72 hours pretreatment, listed as RANOLAZINE): decreased
INVASIVENESS (no pretreatment) ([3]; Hypoxia, 5 μM, listed as RANOLAZINE): no benefit
INVASIVENESS (no pretreatment) ([3]; Hypoxia, 10 μM): not statistically significant
INVASIVENESS (no pretreatment) [3, 6]: decreased
INVASIVENESS (no pretreatment) ([3]; Hypoxia, 20 μM): reduced the migration of the cells
INVASIVENESS (no pretreatment) [3, 8]: no benefit
INVASIVENESS (no pretreatment) ([3]; Hypoxia, 25 μM): less invasive than untreated cells in a statistically significant way
INVASIVENESS (pretreatment) ([3]; Hypoxia, 25 μM, 48 hours): decreased
INVASIVENESS (pretreatment) ([3]; Hypoxia, 25 μM, 72 hours): decreased
INVASIVENESS (no pretreatment) ([3]; Hypoxia, 25 μM, listed as RANOLAZINE): decreased
invasiveness (pre-treatment) ([3]; Hypoxia, 25 μM, pre-treated for 24 hours before the 24 hour long assay): significantly less invasive
invasiveness (pre-treatment) ([3]; Hypoxia, 25 μM, pre-treated for 48 hours before the 24 hour long assay): significantly less invasive
INVASIVENESS (no pretreatment) ([3]; Hypoxia, 50 μM): reduced the migration of the cells
INVASIVENESS (no pretreatment) [3, 9]: decreased
INVASIVENESS (no pretreatment) ([3]; Hypoxia, 300 μM): reduced the migration of the cells
INVASIVENESS (no pretreatment) [3, 10]: decreased
INVASIVENESS (no pretreatment) ([3]; Normoxia, 10 μM): reduced the migration of the cells
INVASIVENESS (no pretreatment) [3, 7]: decreased
INVASIVENESS (no pretreatment) ([3]; Normoxia, 20 μM): reduced the migration of the cells
INVASIVENESS (no pretreatment) [3, 11]: decreased
INVASIVENESS (no pretreatment) ([3]; Normoxia, 50 μM): not statistically significant
INVASIVENESS (no pretreatment) [3, 12]: no effect
INVASIVENESS (no pretreatment) ([3]; Normoxia, 300 μM): reduced the migration of the cells
INVASIVENESS (no pretreatment) [3, 13]: decreased
potency on invasiveness compared with positive control TTX ([3]; higher concentrations tested, TTX 10 μmol): more potent than the toxin (TTX)
TRANSVERSE MIGRATION ([4]; Hypoxia, 20 μM): reduced the transverse migration of the cells in a statistically significant way
TRANSVERSE MIGRATION [4, 8]: decreased
TRANSVERSE MIGRATION ([4]; Hypoxia, 50 μM): reduced the transverse migration of the cells in a statistically significant way
TRANSVERSE MIGRATION [4, 9]: decreased
TRANSVERSE MIGRATION ([4]; Hypoxia, 300 μM): reduced the transverse migration of the cells in a statistically significant way
TRANSVERSE MIGRATION [4, 10]: decreased
TRANSVERSE MIGRATION ([4]; Normoxia, 20 μM): reduced the transverse migration
TRANSVERSE MIGRATION [4, 11]: decreased
TRANSVERSE MIGRATION ([4]; Normoxia, 50 μM): reduced the transverse migration
TRANSVERSE MIGRATION [4, 12]: decreased
TRANSVERSE MIGRATION ([4]; Normoxia, 300 μM): not statistically significant
TRANSVERSE MIGRATION [4, 13]: no effect
potency on transverse migration compared with positive control TTX ([4]; higher concentrations tested, TTX 1 μmol): more potent than the toxin (TTX)

From patent US12534444B2, “Treatment of cancer/inhibition of metastasis” (Celex Oncology Innovations Limited, priority 2010, dated 2026)
